Assay results from ChEMBL document CHEMBL1201862, “PubChem BioAssay data set” (2004).
Calls of active or inactive are those of the source.

How the values were obtained:
Oxytocin receptor = Oxytocin receptor (Homo sapiens, UniProt P30559); test: Counterscreen for vasopressin 1 receptor (V1R) agonists: Fluorescence-based cell-based high throughput dose response assay for agonists of the Oxytocin Receptor (OXTR). [Related pubchem assays: 2435 (Primary screen (OXTR agonists in singlicate)), 434964 (Confirmation screen (V1R agonists in triplicate)), 434969 (Counterscreen (OXTR agonists in …; format: functional
Chain of Oxytocin receptor (P30559 whole entry): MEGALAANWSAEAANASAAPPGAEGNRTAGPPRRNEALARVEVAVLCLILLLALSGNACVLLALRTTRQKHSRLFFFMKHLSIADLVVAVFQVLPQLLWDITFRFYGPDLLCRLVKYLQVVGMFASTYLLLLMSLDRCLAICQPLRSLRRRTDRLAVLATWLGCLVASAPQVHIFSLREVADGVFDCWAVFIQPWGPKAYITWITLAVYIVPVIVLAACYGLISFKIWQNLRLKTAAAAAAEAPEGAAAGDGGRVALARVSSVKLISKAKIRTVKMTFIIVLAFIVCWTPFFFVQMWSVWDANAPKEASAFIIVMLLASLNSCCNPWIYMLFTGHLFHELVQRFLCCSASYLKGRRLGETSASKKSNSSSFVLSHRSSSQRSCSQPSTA

Vasopressin V1a receptor = Vasopressin V1a receptor (Homo sapiens, UniProt P37288); test: Fluorescence-based cell-based high throughput dose response screening assay for agonists of the vasopressin 1 receptor (V1R).; format: functional
Chain of Vasopressin V1a receptor (P37288 whole entry): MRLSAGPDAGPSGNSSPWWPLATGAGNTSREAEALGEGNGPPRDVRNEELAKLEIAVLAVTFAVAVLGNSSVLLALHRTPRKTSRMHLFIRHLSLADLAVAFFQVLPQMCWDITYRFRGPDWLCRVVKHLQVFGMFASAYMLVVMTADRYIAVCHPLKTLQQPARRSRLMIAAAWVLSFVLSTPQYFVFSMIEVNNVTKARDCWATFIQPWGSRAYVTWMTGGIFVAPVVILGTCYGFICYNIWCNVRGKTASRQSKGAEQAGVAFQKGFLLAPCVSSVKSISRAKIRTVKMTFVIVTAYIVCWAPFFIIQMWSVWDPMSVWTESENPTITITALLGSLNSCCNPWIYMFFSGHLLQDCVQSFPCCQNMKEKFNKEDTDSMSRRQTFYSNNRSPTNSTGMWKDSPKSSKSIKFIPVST

[1] = biological target: Lysosomal acid glucosylceramidase (Homo sapiens, UniProt P04062); test: Dose response cell-based high throughput screening assay to identify enhancers of beta-glucosidase activity. [Related pubchem assays: 784 ]; format: functional
Chain of Lysosomal acid glucosylceramidase (P04062 whole entry): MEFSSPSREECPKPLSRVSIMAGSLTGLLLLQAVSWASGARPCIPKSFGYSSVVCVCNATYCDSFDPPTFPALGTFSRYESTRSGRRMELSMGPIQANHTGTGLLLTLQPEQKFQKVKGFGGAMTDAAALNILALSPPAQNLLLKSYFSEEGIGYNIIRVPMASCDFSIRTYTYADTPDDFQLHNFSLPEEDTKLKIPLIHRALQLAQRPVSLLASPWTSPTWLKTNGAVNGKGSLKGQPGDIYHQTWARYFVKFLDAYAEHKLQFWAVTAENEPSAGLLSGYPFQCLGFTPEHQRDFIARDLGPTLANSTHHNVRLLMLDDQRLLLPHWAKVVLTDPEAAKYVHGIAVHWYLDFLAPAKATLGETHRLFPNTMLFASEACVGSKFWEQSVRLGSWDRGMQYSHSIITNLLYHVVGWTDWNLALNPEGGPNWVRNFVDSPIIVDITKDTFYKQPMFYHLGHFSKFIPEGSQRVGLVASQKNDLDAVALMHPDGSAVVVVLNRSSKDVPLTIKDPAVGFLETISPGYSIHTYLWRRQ

[2] = biological target: G2/mitotic-specific cyclin-B1 (Homo sapiens, UniProt P14635); test: Counterscreen assay for inhibitors of Wee1 degradation: dose response cell-based assay to identify inhibitors of cyclin B degradation. [Related pubchem assays: 1410, 1321 ]; format: functional
Chain of G2/mitotic-specific cyclin-B1 (P14635 whole entry): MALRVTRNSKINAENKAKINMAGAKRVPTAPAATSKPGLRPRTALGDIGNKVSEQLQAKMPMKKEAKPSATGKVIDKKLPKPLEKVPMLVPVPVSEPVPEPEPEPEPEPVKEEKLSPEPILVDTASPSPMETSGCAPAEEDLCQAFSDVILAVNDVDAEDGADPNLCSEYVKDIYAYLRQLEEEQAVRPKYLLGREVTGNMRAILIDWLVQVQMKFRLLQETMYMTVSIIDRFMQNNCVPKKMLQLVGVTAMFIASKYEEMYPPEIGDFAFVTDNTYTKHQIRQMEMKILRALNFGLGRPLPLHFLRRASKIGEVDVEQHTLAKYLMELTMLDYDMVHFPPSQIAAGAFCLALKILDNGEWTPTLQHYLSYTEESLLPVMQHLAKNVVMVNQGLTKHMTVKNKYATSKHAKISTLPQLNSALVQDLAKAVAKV

Wee1-like protein kinase = Wee1-like protein kinase (Homo sapiens, UniProt P30291); test: Dose Response Cell-based Assay for Inhibitors of Wee1 Degradation. [Related pubchem assays: 1410, 1321 ]; format: functional
Chain of Wee1-like protein kinase (P30291 whole entry): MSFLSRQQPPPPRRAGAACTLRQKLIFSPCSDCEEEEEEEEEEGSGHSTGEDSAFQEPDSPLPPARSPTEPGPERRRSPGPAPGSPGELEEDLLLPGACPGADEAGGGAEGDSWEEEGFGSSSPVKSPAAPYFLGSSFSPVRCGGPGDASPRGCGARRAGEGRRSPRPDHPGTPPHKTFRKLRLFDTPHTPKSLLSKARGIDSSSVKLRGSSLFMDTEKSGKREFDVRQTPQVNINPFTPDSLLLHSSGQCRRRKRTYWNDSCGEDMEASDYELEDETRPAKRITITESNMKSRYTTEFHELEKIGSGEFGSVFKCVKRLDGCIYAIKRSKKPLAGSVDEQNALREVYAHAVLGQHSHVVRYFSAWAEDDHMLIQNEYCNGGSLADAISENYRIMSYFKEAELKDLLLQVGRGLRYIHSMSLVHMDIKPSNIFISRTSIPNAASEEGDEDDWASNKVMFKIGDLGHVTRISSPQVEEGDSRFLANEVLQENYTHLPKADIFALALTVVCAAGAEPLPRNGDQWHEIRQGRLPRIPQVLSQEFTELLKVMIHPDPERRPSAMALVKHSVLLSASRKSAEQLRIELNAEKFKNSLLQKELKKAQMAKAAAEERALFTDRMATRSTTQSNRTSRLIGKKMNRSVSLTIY

[3] = Luminescence Cell-Based Dose-Confimation HTS to Identify Inhibitors of 5'UTR Stem-Loop Driven Alpha-Synuclein mRNA Translation in H4 Neuroglioblastoma Cells. [Related pubchem assays: 1827 (Project Summary), 1813 (Primary HTS)]; format: functional
[4] = antiviral protection against BTV-induced cell death – arbovirus, BSR cells, confirmation (AID 1250); format: functional;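 note: protection from viral cytopathic effect measured as cell viability by ATP luminescence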
[5] = biological target: Serine/threonine-protein phosphatase (Homo sapiens, UniProt Q9BPW0); test: Counterscreen for inhibitors of PP1: fluorescence-based biochemical high throughput dose response assay to identify inhibitors of Protein Phosphatase 5 (PP5). [Related pubchem assays: 2034 (Summary (PP5 inhibitors)), 1987 (PP5 inhibitors in singlate), 2235 (PP1 inhibitors in singlate)]
Chain of Serine/threonine-protein phosphatase (Q9BPW0 whole entry): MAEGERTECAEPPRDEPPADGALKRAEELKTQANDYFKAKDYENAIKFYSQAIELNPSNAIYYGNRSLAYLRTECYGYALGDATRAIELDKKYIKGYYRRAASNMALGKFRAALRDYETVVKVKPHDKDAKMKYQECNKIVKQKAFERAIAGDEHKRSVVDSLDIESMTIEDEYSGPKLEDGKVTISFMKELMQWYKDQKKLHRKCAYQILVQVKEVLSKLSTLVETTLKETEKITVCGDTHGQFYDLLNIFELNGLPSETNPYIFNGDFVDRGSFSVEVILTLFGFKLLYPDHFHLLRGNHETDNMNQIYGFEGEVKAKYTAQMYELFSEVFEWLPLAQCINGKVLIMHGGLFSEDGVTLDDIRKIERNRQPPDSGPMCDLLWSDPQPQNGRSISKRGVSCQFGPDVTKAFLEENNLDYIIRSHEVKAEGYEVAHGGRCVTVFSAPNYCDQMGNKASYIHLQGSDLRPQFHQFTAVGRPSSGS

[6] = rise of 2N DNA cells, HeLa – IC50, dose response (AID 1117349); format: functional, cell-based
[7] = glucagon-like peptide-1 release potency in STC-1, concentration-response, half-maximal inhibitory concentration in the STC-1 line (AID 1117345); format: functional, cell-based
[8] = rise of 4N DNA cells, HeLa – IC50, dose response (AID 1117351); format: functional, cell-based
[9] = Potency on glucagon-like peptide 1 release, dose-response in NCI-H716 cell line, half maximal inhibitory concentration (AID 1117344); format: functional, cell-based
[10] = biological target: Mothers against decapentaplegic homolog 3 (Homo sapiens, UniProt P84022); test: inhibitors of SMAD-driven TGF-beta signaling – dose response (AID 715); format: functional
Chain of Mothers against decapentaplegic homolog 3 (P84022 whole entry): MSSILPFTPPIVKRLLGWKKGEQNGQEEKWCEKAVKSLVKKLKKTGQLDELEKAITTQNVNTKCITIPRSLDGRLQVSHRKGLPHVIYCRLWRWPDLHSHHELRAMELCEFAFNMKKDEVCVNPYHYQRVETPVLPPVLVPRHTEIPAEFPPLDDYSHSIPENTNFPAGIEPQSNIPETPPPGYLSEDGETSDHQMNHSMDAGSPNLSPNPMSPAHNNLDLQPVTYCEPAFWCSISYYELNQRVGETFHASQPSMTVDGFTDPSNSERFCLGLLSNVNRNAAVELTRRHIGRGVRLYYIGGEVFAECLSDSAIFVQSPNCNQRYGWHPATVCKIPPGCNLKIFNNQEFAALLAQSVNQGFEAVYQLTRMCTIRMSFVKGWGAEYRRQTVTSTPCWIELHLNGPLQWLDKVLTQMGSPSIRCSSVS

[11] = biological target: Sphingosine 1-phosphate receptor 2 (Homo sapiens, UniProt O95136); test: Dose Response Cell Based Assay for Agonists of the S1P2 Receptor of Purchased Analogues. [Related pubchem assays: 729, 843, 854, 736 ]; format: functional
Chain of Sphingosine 1-phosphate receptor 2 (O95136 whole entry): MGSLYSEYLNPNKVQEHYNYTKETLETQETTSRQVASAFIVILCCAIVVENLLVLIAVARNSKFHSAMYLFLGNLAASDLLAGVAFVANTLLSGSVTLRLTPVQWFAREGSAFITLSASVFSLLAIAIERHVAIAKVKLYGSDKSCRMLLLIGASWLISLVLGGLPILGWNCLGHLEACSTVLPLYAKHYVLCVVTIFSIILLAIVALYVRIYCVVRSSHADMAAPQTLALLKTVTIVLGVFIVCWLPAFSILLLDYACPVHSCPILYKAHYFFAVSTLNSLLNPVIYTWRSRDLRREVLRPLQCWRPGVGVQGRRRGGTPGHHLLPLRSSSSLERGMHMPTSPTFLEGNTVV

NADPH oxidase 1 = NADPH oxidase 1 (Homo sapiens, UniProt Q9Y5S8); format: functional, cell-based;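 note: Cell-based assay with luminescence read-out, IC50 derived from inhibitor dose-response curves; intracellular ROS from endogenous NOX1 in intact HT29 colon cancer cells; potency of inhibitors that lower the ROS luminescence signal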
Chain of NADPH oxidase 1 (Q9Y5S8 whole entry): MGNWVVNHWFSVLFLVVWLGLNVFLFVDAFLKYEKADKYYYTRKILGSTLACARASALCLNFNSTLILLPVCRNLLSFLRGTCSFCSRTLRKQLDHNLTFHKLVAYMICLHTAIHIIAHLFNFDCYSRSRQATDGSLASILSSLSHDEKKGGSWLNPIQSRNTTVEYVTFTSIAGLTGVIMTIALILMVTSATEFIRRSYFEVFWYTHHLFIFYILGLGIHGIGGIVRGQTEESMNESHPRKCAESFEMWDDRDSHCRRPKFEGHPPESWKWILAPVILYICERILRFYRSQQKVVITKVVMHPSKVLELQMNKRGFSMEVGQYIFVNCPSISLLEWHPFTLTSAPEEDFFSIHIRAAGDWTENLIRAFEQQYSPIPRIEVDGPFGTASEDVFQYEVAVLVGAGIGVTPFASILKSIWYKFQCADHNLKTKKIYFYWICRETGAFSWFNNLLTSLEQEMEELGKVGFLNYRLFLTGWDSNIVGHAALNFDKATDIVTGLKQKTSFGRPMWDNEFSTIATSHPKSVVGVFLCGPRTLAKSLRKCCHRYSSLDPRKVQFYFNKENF

Compound: CC(NC(=O)Nc1ccc([N+](=O)[O-])cc1)C(c1ccccc1)N1CCOCC1 (stereo not given)
- EC50 (Oxytocin receptor): > 29.9 µM (not active)
- EC50 (Vasopressin V1a receptor): 4.67 µM (active)

Compound: COCCCNC(=O)Cn1cc(C(=O)C2CC2)c2ccccc21
- EC50 [1]: > 50 µM (not active)

Compound: CCN(CC)c1ccc(/C=N/NC(=O)c2cnccn2)cc1
- EC50 [2]: > 49.7 µM (not active)
- EC50 (Wee1-like protein kinase): > 49.7 µM (not active)

Compound: COc1ccc(C)cc1-n1nnnc1SCc1nc(N)nc(N(C)C)n1
- EC50 [3]: 20.5 µM (active)

Compound: O=C(Nc1nnc(SCc2ccc(Cl)cc2Cl)s1)C1COc2ccccc2O1 (stereo not given)
- IC50 [4]: 49 µM (active)

Compound: C[C@@]12C(=O)OC(=O)[C@]1(C)C1CCC2O1
- IC50 [5]: 0.239 µM (active)
- IC50 [6]: > 10 µM (inactive)
- IC50 [7]: 13.7 µM (inactive)
- IC50 [8]: > 10 µM (inactive)
- IC50 [9]: 6.68 µM (inactive)

Compound: Cc1cccc(CSc2nc3c(cc2C#N)CCC3)c1
- IC50 [10]: 18.5 µM (active)

Compound: CCOC(=O)c1cc(C)n(Cc2ccccc2)c1C
- EC50 [11]: > 30 µM (not active)

Compound: COc1ccc(-c2nc(-c3ccccc3)c(-c3ccccc3)[nH]2)cc1OC
- IC50 (NADPH oxidase 1): > 17 µM (not active)
